System: sugarbeet NIM-like clone (SEQ ID NO:39 and 63)
Experiment: Northern analysis of sugarbeet NIM-like clone expression after BTH treatment
Assay type: in vivo, Beta vulgaris
Settings: after 100 μM or 300 μM BTH treatment

CSC(=O)c1cccc2nnsc12 [BTH, benzo(1,2,3)thiadiazole-7-carbothioic acid S-methyl ester]
increase of expression of the sugarbeet NIM-like clone (Northern data): three to seven

Reference: patent US20030159171A1, “Novel plant genes and uses thereof” (Syngenta Participations AG, priority 1999, published 2003)
